The text below walks through data of patent publication US20170215424A1 (SUMITOMO CHEMICAL COMPANY, LIMITED, priority 2014, published 2017).

Bounds are passed on as bounds.

Assay type in all cases: in vivo
Experiment [1] deals with Blattella germanica. Nature of the experiment: Test Example 1: spray knockdown test on Blattella germanica. As to conditions: 0.25 h, 10 vermin, oil solution 2.0% w/v, 1.5 ml sprayed, within 15 minutes, read-out: knockdown ratio of test vermin within 15 minutes. How it is done: A formulation containing each of the present amide compounds (1), (2), (4), (8), (12), (13), (14), (15), (16), (18), (20), (24), (25), (27) and (28) prepared in accordance with Formulation Example 7 was diluted with an isopropyl alcohol/deodorized kerosine=1/9 mixed liquid so that the active ingredient concentration became 2.0% w/v, to prepare a drug solution for a test.
Ten vermin of Blattella germanica (male female each five vermin) were allowed to release in a container for a test in which a butter was applied on an inner wall (diameter 8.75 cm, height 7.5 cm, bottom face covered with 16 mesh wire net), and the container was arranged on a bottom of a chamber for a test (bottom surface: 46 cm×46 cm, height: 70 cm). From a height of 60 cm from an upper side of the container, 1.5 ml of the drug solution for a test was sprayed using a spray gun (spraying pressure 0.42 kg/cm^2). Thirty seconds after spraying, the container was taken out from the chamber for a test, the number of vermin which had been knocked down was counted for 15 minutes with time, and a knockdown ratio was obtained. The knockdown ratio was calculated by the following expression.
(§1) Knockdown ratio (%)=(number of knocked down vermin/number of test vermin)×100

Experiment [2] has as its system Culexpipienspallens. Nature of the experiment: Test Example 3: spray knockdown test on Culexpipienspallens imagoes. As to conditions: 0.25 h, oil solution 0.1% w/v, 0.5 ml sprayed, within 15 minutes, read-out: knockdown ratio of the test vermin within 15 minutes. How it is done:
A formulation containing each of the present amide compounds (1), (2), (4), (5), (6), (7), (8), (9), (10), (12), (13), (14), (15), (16), (18), (19), (21), (22), (24), (25), (26) and (27) prepared in accordance with Formulation Example 7 was diluted with an isopropyl alcohol/deodorized kerosine=1/9 mixed liquid so that the active ingredient concentration became 0.1% w/v, to prepare a drug solution for a test.
Ten imagoes of Culexpipienspallens were allowed to release in a polyethylene cup (bottom surface diameter 10.6 cm), and the cup was covered with a 16 mesh nylon gauze. The polyethylene cup was arranged on a bottom of a chamber for a test (bottom surface: 46 cm×46 cm, height: 70 cm). From a height of 30 cm from an upper surface of the polyethylene cup, 0.5 ml of the drug solution for a test was sprayed using a spray gun (spraying pressure 0.4 kg/cm^2). After spraying, the cup was immediately taken out from the chamber for a test, the number of knocked down vermin was counted for 15 minutes with time, and a knockdown ratio was obtained. The knockdown ratio was calculated by the following expression.
as §1

Experiment [3] has as its system Spodopteralitura. Nature of the experiment: Test Example 7: cabbage spray test on fourth instar larvae of Spodopteralitura. To be noted: 500 ppm spray, 20 ml/cup, after 4 days. The method, then: A formulation containing the present amide compound (25) prepared in accordance with Formulation Example 15 was diluted with water so that active ingredient concentration became 500 ppm, to preparer a spray solution for a test. On the other hand, a cabbage was planted in a polyethylene cup, and grown until a third true leaf or a fourth true leaf developed. On the cabbage, the spray solution for a test was sprayed at a rate of 20 ml/cup. After the drug solution which had been spraying-treated on the cabbage was dried, ten fourth instar larvae of Spodopteralitura were parasitized. The number of live vermin of Spodopteralitura on a cabbage leaf was investigated after 4 days, and a controlling value was obtained according to the following expression. Controlling value (%)={1−(Cb×Tai)/(Cai×Tb)}×100 In addition, letters in the equation represent the following meanings. Cb: Number of vermin before treatment of non-treated section Cai: Number of vermin at observation of non-treated section Tb: Number of vermin before treatment of treated-section Tai: Number of vermin at observation of treated-section

`O=C(NCC1CCOC1)C1=NOC(CCCCOc2ccccc2)C1` (stereo not shown) [present amide compound (8), N-(tetrahydrofuran-3-ylmethyl)-5-(4-phenoxybutyl)-4,5-dihydroisoxazole-3-carboxamide]: the pest or weed control at 2 % strength in experiment [1] was no less than 80%. In addition, in experiment [2], the pest or weed control at 0.1 % strength is no less than 80%. Take `O=C(NCC1CCOC1)C1=COC(COc2ccccc2)CC1` (stereo not shown) [present amide compound (27), N-(tetrahydrofuran-3-ylmethyl)-6-phenoxymethyl-5,6-dihydro-4H-pyrane-3-carboxamide]: in experiment [1], the pest or weed control at 2 % strength is no less than 80%. For the same molecule, the pest or weed control at 0.1 % strength in experiment [2] is no less than 80%. With `O=C(NCC1CCOC1)C1=NOC(COCc2ccccc2)CC1` (stereo not shown) [present amide compound (26), N-(tetrahydrofuran-3-ylmethyl)-6-benzyloxymethyl-5,6-dihydro-4H-[1,2]oxazine-3-carboxamide], in experiment [2], the pest or weed control at 0.1 % strength was no less than 80%. Same read-out and setting: for `O=C(NCC1CCOC1)C1=NOC(CCCOc2ccccc2)C1` (stereo not shown) [present amide compound (7), N-(tetrahydrofran-3-ylmethyl)-5-(3-phenoxypropyl)-4,5-dihydroisoxazole-3-carboxamide] the value was no less than 80%. Still for that read-out and setting: for `O=C(NCC1CCOC1)C1=NOC(COc2ccccc2)C1` (stereo not shown) [present amide compound (5), N-(tetrahydrofran-3-ylmethyl)-5-(phenoxymethyl)-4,5-dihydro isoxazole-3-carboxamide] the value was no less than 80%. In the case of `O=C(NCC1CCOC1)C1=NOC(CCCOCc2ccccc2)C1` (stereo not shown) [present amide compound (13), N-(tetrahydrofuran-3-ylmethyl)-5-(3-benzyloxypropyl)-4,5-dihydroisoxazole-3-carboxamide], in experiment [1], the pest or weed control at 2 % strength is no less than 80%. The pest or weed control at 0.1 % strength in experiment [2] is no less than 80%. Regarding `O=C(NCC1CCOC1)C1=NOC(CCCCOCc2ccccc2)C1` (stereo not shown) [present amide compound (14), N-(tetrahydrofuran-3-ylmethyl)-5-(4-benzyloxybutyl)-4,5-dihydroisoxazole-3-carboxamide], the pest or weed control at 2 % strength in experiment [1] is no less than 80%. In addition, the pest or weed control at 0.1 % strength in experiment [2] is no less than 80%. Regarding `O=C(NCC1CCOC1)C1=NOC(CCCCCOCc2ccccc2)C1` (stereo not shown) [present amide compound (15), N-(tetrahydrofuran-3-ylmethyl)-5-(5-benzyloxypentyl)-4,5-dihydroisoxazole-3-carboxamide], the pest or weed control at 2 % strength in experiment [1] was no less than 80%. Besides, the pest or weed control at 0.1 % strength in experiment [2] is no less than 80%. On to `O=C(NCC1CCOC1)C1=NOC(COc2ccc3ccccc3c2)C1` (stereo not shown) [present amide compound (19), N-(tetrahydrofuran-3-ylmethyl)-5-(2-naphthyloxymethyl)-4,5-dihydroisoxazole-3-carboxamide], for which, in experiment [2], the pest or weed control at 0.1 % strength was no less than 80%. Consider `O=C(NCC1CCOC1)C1=NOC(CCOCc2ccccc2)C1` (stereo not shown) [present amide compound (12), N-(tetrahydrofuran-3-ylmethyl)-5-(2-benzyloxyethyl)-4,5-dihydroisoxazole-3-carboxamide], for which the pest or weed control at 2 % strength in experiment [1] is no less than 80%. The pest or weed control at 0.1 % strength in experiment [2] is no less than 80%.

For `CC1C(C(=O)NCC2CCOC2)=NOC1COc1ccccc1` (stereo not shown) [present amide compound (22), N-(tetrahydrofuran-3-ylmethyl)-4-methyl-5-phenoxymethyl-4,5-dihydroisoxazole-3-carboxamide], in experiment [2], the pest or weed control at 0.1 % strength was no less than 80%. On to `O=C(NCC1CCOC1)C1=NOC(CCCOCCc2ccccc2)C1` (stereo not shown) [present amide compound (18), N-(tetrahydrofuran-3-ylmethyl)-5-(3-phenethyloxypropyl)-4,5-dihydroisoxazole-3-carboxamide], for which the pest or weed control at 2 % strength in experiment [1] is no less than 80%. For the same molecule, in experiment [2], the pest or weed control at 0.1 % strength was no less than 80%. For the molecule `O=C(NCC1CCOC1)C1=NOC(CCCCCCOc2ccccc2)C1` (stereo not shown) [present amide compound (10), N-(tetrahydrofuran-3-ylmethyl)-5-(6-phenoxyhexyl)-4,5-dihydroisoxazole-3-carboxamide], the pest or weed control at 0.1 % strength in experiment [2] was no less than 80%. For `O=C(NCC1CCOC1)C1=NOC(CCCCCCOCc2ccccc2)C1` (stereo not shown) [present amide compound (16), N-(tetrahydrofuran-3-ylmethyl)-5-(6-benzyloxyhexyl)-4,5-dihydroisoxazole-3-carboxamide], the pest or weed control at 2 % strength in experiment [1] was no less than 80%. The pest or weed control at 0.1 % strength in experiment [2] was no less than 80%. In the case of `O=C(NCC1CCOC1)C1=NOC(CCc2ccccc2)C1` (stereo not shown) [present amide compound (4), N-(tetrahydrofuran-3-ylmethyl)-5-phenethyl-4,5-dihydroisoxazole-3-carboxamide], the pest or weed control at 2 % strength in experiment [1] is no less than 80%. In addition, the pest or weed control at 0.1 % strength in experiment [2] is no less than 80%. For `O=C(NCC1CCOC1)C1=NOC(COc2ccccc2)CC1` (stereo not shown) [present amide compound (24), N-(tetrahydrofuran-3-ylmethyl)-6-phenoxymethyl-5,6-dihydro-4H-[1,2]oxazine-3-carboxamide], the pest or weed control at 2 % strength in experiment [1] was no less than 80%. For the same molecule, the pest or weed control at 0.1 % strength in experiment [2] is no less than 80%. For the molecule `CCCCC1CC(C(=O)NCC2CCOC2)=NO1` (stereo not shown) [present amide compound (1), N-(tetrahydrofuran-3-ylmethyl)-5-butyl-4,5-dihydroisoxazole-3-carboxamide], the pest or weed control at 2 % strength in experiment [1] is no less than 80%. Moreover, the pest or weed control at 0.1 % strength in experiment [2] is no less than 80%. Consider `O=C(NCC1CCOC1)C1=NOC(COCc2ccc3ccccc3c2)C1` (stereo not shown) [present amide compound (20), N-(tetrahydrofuran-3-ylmethyl)-5-(2-naphthylmethyloxymethyl)-4,5-dihydroisoxazole-3-carboxamide], for which the pest or weed control at 2 % strength in experiment [1] was no less than 80%. Regarding `O=C(NCC1CCOC1)C1=NOC(CCCOCc2ccc3ccccc3c2)C1` (stereo not shown) [present amide compound (21), N-(tetrahydrofuran-3-ylmethyl)-5-(2-naphthylmethyloxypropyl)-4,5-dihydroisoxazole-3-carboxamide], in experiment [2], the pest or weed control at 0.1 % strength is no less than 80%. In the case of `O=C(NCC1CCOC1)C1=NOC(CCOc2ccccc2)C1` (stereo not shown) [present amide compound (6), N-(tetrahydrofran-3-ylmethyl)-5-(2-phenoxyethyl)-4,5-dihydroisoxazole-3-carboxamide], the pest or weed control at 0.1 % strength in experiment [2] was no less than 80%. `O=C(NCC1CCOC1)C1=COC(COCc2ccccc2)CC1` (stereo not shown): in experiment [1], the pest or weed control at 2 % strength was no less than 80%.

For `O=C(NCC1CCOC1)C1=NOC(COc2cccc(Cl)c2)CC1` (stereo not shown) [present amide compound (25), N-(tetrahydrofuran-3-ylmethyl)-6-(3-chloro-phenoxymethyl)-5,6-dihydro-4H-[1,2]oxazine-3-carboxamide], the pest or weed control at 2 % strength in experiment [1] is no less than 80%. Also, the pest or weed control at 0.1 % strength in experiment [2] is no less than 80%. Moreover, the controlling value in experiment [3] is given as no less than 80%. For the molecule `CCCCCC1CC(C(=O)NCC2CCOC2)=NO1` (stereo not shown) [present amide compound (2), N-(tetrahydrofuran-3-ylmethyl)-5-pentyl-4,5-dihydroisoxazole-3-carboxyamide], the pest or weed control at 2 % strength in experiment [1] is no less than 80%. In experiment [2], the pest or weed control at 0.1 % strength is no less than 80%.
